Measured values as given in US7311892B2, “Multidrug multiligand conjugates for targeted drug delivery” (priority 2001, dated 2007).

Key:
[1] = test system: NCI-H1299 non-small cell lung cancer cells; assay: Apoptosis induction assay (Annexin V-FITC, flow cytometry); type: cell-based; settings: 50 nM, 3 hours exposure, then drug-free medium; analysed after 96 hours; triplicate
Description: Apoptosis was measured by an Annexin V-FITC kit. […] 2.3%, 2.5% and 2.4% induction for untreated cells, free PTX, the BTN/SaV complex and the BTN/SaV+PTX controls, respectively.
FIG. 6 illustrates the results of an apoptosis induction assay, illustrating NCI-HI299 cells are induced to undergo apoptosis specifically in response to the PTX-BBN[7-13]-BTN-SaV conjugate. Cells were grown as described above and in Example 3 and left untreated or treated with 50 nM of the PTX-BBN[7-13]-BTN-SaV conjugate, unconjugated paclitaxel (PTX), the biotin/streptavidin complex (BTN/SaV) or a mixture of BTN/SaV and PTX. After 3 hours, the media containing these additives was removed and replaced with fresh media. After 96 hours, the cells were removed from the 24 well plates by treatment with trypsin/EDTA and analyzed for Annexin V by flow cytometry using an Annexin V-FITC kit (Biovision, Palo Alto, Calif.). All treatments were done in triplicate and presented as the percentage of cells staining with Annexin V-FITC. […]
The HI299 cells were plated in 24 well plates at a density of 10,000 cells/well and allowed to adhere for 24 hours. […] After 96 hours, the cells were removed from the 24 well plates by treatment with trypsin/EDTA and analyzed for Annexin V by flow cytometry using an Annexin V-FITC kit (Biovision, Palo Alto, Calif.). […]

[2] = test system: NCI-H1299 non-small cell lung cancer cells; assay: Cell proliferation assay; type: cell-based; settings: Homo sapiens, 50 nM, 3 hours exposure, then drug-free medium, cells counted after 96 hours, normalized to untreated cells, quadruplicate, read-out: growth inhibition
Description: Cells were grown as described in Example 2 and exposed to various treatments. The cells were left untreated or treated with 50 nM of the PTX-BBN[7-13]-BTN-SaV conjugate, unconjugated paclitaxel (PTX), the biotin/streptavidin complex (BTN/SaV) or a mixture of BTN/SaV and PTX. After 3 hours, the media containing these additives was removed and replaced with fresh media. After 96 hours, the cells were removed from the 24 well plates by treatment with trypsin/EDTA and counted with a Coulter particle counter. All treatments were done in quadruplicate and the cell counts were normalized to the untreated cells.
To evaluate the growth inhibitory effects of the PTX-BBN[7-13]-BTN/SaV conjugate, experiments were designed to compare the effect of the conjugate with the unconjugated paclitaxel, the BTN/SaV complex and a mixture of free PTX and the BTN/SaV complex (FIG. 5).
The HI299 cells were plated in 24 well plates at a density of 10,000 cells/well and allowed to adhere for 24 hours. The cells were treated with 50 nM of the following: 1) no treatment (Untreated); 2) unconjugated paclitaxel(PTX); 3) biotin/streptavidin complex (BTN/SaV); 4) a mixture of BTN/SaV and PTX; and 5) the PTX-BBN[7-13]-BTN/SaV conjugate (Conjugate) described in FIG. 1A. […] After 96 hours, the cells were removed from the 24 well plates by treatment with trypsin/EDTA and counted with a Coulter particle counter. […]

## CC(=O)O[C@H]1C(=O)[C@@]2(C)[C@H]([C@H](OC(=O)c3ccccc3)[C@]3(O)C[C@H](OC(=O)[C@H](O)[C@@H](NC(=O)c4ccccc4)c4ccccc4)C(C)=C1C3(C)C)[C@]1(OC(C)=O)CO[C@@H]1C[C@@H]2O [free PTX, paclitaxel]
[1]
  induction of apoptosis (percentage of cells staining with Annexin V-FITC): ~2.3%
[2]
  inhibition at 0.05 µM: 0%
